Assay results reported in patent US6248309A, “Gums containing antimicrobial agents” (priority 1999, dated 2001).
Several values for one entry are separate records, joined by “and”; a condition that tells them apart may be missing. Equal values may be shown once. Read-outs that look alike come from different tables or passages of the source.

Key:
Porphyromonas gingivalis = assay: MIC of each agent used in Example 5; assay type: cell-based; conditions: starting dilution 0.1 percent in methanol, MIC defined in micrograms per milliliter, read-out: MIC relative to Porphyromonas gingivalis used in Example 5
Experimental: The MIC Range was determined against a standard panel of five organisms that included Actinomyces viscosus, Fusobacterium nucleatum, Porphyromonas gingivalis, Streptococcus mutans, and Stretococcus sanguis. The starting dilution was 0.1 percent in methanol. The MIC used in this Example 5 was the MIC for each agent relative to Porphyromonas gingivalis.

clinical = conditions: human, in vivo
Experimental: (§7) Ten volunteers chewed 2.7 grams samples of each gum formulation and provided saliva samples at intervals and the gum bolus at the end of the 25 minute chewing period. High pressure liquid chromatography and gas chromatography were used to analyze the gum bolus and saliva non-volatile and volatile components, respectively.
(§8) Saliva samples were collected from each of the individuals prior to chewing 2.7 grams of gum, and at 1.0, 2.5, 5.0, 10.0, and 25.0 minutes while chewing the gum. The saliva samples were refrigerated until analysis. The gum bolus that remained after 25 minutes was saved and extracted immediately or stored refrigerated until extraction for analysis.
(§9) Samples were Vortex-mixed in Multi-tube vortex mixer for one minute and then centrifuged at top speed in clinical centrifuge for two minutes. Supernatants were carefully transferred to 1 milliliter glass shell vials and capped. Analysis was carried out either by isocratic elution for glabridin-only samples, or gradient elution for the samples containing the glycyrrhizic and 18β-glycyrrhetinic acids using high pressure liquid chromatography. Glabridin concentrations were converted to GLY concentrations by taking the weight percent glabridin in GLY to be 2.74 percent.
(§10) The calibration curve was prepared using spiked blank saliva.
(§11) For saliva, the essential oils of menthol, cedarwood oil, geraniol and Rosmarinus officianalis were determined by capillary gas chromatography. The split ratio was 25:1. The injection volume was 2 μL. Four hundred μL of saliva was extracted from the 1 milliliter of ethyl acetate containing an internal standard (hexadecane) in 1.5 milliliter Eppendorf tubes. After centrifugation, the organic layer was injected directly into the Hewlett-Packard 6890 gas chromatograph. […] For this reason, only the samples from 0 to 10 minutes were analyzed. A cleanup gradient was run from 190 to 300° C. every fifth sample to remove less volatile interferences from the column.

[1] = test system: Streptococcus mutans (SM); assay: MIC of agents alone, in pairs and in three-agent combination (Example 2); assay type: cell-based, Streptococcus mutans ATCC 25175; conditions: SM, agent used alone
Excerpt: (§1) In addition, the example describes how the MIC of antimicrobial agents in the combinations are reduced compared to the MIC of those antimicrobial agents alone and the MIC of those agents in various pairings. Numerous combinations of the antimicrobial agents described herein were combined to form combinations comprising three antimicrobial agents or triplets. Each of the formed triplets included either cedarwood oil or berberine hydrochloride.
(§2) The protocol used was a variation of the procedure described above in Example 1. The assay was carried out in the two-dimensional array of a 96-well plate. In order to evaluate three agents, two of the agents were paired against the third agent. For example, varying concentrations of antimicrobial agent A plus antimicrobial agent B versus varying concentrations of antimicrobial agent C were evaluated on one 96-well plate. The procedure was repeated with the other two possible pairings, i.e., A+C with B, and B+C with A. Accordingly, each triplet required three assays in order to assess each of the three possible pairings.
(§3) The bacterial innoculum was prepared as described in Example 1.
(§4) A sterile polystyrene 96-well plate was used to dilute the antimicrobial agents A, B and C. Using aseptic technique, 100 microliters of distilled water was placed in each test well. The dilution scheme was separated into two parts. First, the dilution of the combined agents A and B and then second, the dilution of agent C. A dilution of agents A and B was accomplished by placing 50 microliters of stock solution for agent A in the first well of each column. Next, 50 microliters of stock solution for agent B was added to each of the first wells of each column. Accordingly, the first well of each column included 50 microliters of stock solution for agent A and 50 microliters of stock solution for agent B. 100 microliters from the first row in each column was then transferred to the next well in the column and so on down the column. Each transfer was a one-half dilution of the preceding concentration.
(§5) The dilution of antimicrobial agent C was accomplished by adding 100 microliters of agent C stock solution to the first well of each row. 100 microliters from the first well in each row was then transferred to the next well and so on across the row of test wells. Each transfer was a one-half dilution of the preceding concentration. FIG. 1 is a schematic illustration of the concentrations of antimicrobial agents A, B and C derived from the dilution scheme described above. […] The concentration of agent C decreases across a row from left to right. […]
(§6) The 96-well plate was then incubated under conditions that varied by microorganism. […] The plate was then read for microbial growth with a spectrophotometer by optical density. […]

[2] = test system: Fusobacterium nucleatum (FN); assay: as above; assay type: cell-based, Fusobacterium nucleatum ATCC 10933; conditions: FN, agent used alone
Excerpt: as §1, §2, §3, §4, §5, §6

[3] = test system: Streptococcus sanguis (SS); assay: as above; assay type: cell-based, Streptococcus sanguis ATCC 49295; conditions: SS; agent used alone
Excerpt: as §1, §2, §3
A sterile polystyrene 96-well plate was used to dilute the antimicrobial agents A, B and C. Using aseptic technique, 100 microliters of distilled water was placed in each test well. The dilution scheme was separated into two parts. First, the dilution of the combined agents A and B and then second, the dilution of agent C. A dilution of agents A and B was accomplished by placing 50 microliters of stock solution for agent A in the first well of each column. Next, 50 microliters of stock solution for agent B was added to each of the first wells of each column. […]
as §6

[4] = test system: Porphyromonas gingivalis (PG); assay: as above; assay type: cell-based, Porphyromonas gingivalis ATCC 33277; conditions: PG, agent used alone
Excerpt: as §1, §2, §3, §4, §5, §6

[5] = assay type: in vivo, human volunteers; conditions: in vivo
Experimental: The saliva samples were refrigerated until analysis.
To either 2.7 grams unchewed gum sample or the remaining bolus of chewed gum, was added 3.0 millileters of internal standard (Hesperetin) in methanol, 6.0 milliliters hexane and 3.0 milliliters distilled water. Samples were homogenized using a Polytron Homogenizer model PT10/35 from Brinkmann Instruments, fitted with a PTA10TS generator for at least 30 seconds on ice, or until no lumps of non-dispersed gum were visible in the sample. Samples were then centrifuged in a Dynac Tabletop Centrifuge at top speed for ten minutes. The lower, amber, aqueous/methanol layer were then filtered through 25 millimeter, 0.45 micrometer nylon Acrodisc syringe filters from Gelman into 4 milliliter autosampler vials and tightly capped with polytetrafluorothylene lined septum in open-top screw caps. These samples were then analyzed using high pressure liquid chromatography for glabridin and/or glycyrrhizic and 18β-glycyrrhetinic acid, and were quantitated against a 4-point linear curve prepared by spiking approximately 2.7 grams unchewed samples of Wrigley Extra Sugarfree Peppermint gum with known levels of purified glabridin, glycyrrhizic acid monoammonium salt and 18β-glycyrrhetinicacid.
For the analysis of the gum bolus, both chewed and unchewed, a Polytron Homogenizer, described above was used. The gum sample was placed in a heavy wall glass tube. Internal standard ([…]) ethyl acetate ([…]) and water ([…]) were added. The sample was homogenized for approximately 30 seconds, or until no particles could be seen. The tubes were then centrifuged for 10 minutes on a clinical centrifuge at maximum speed. The supernatant was injected directly onto the gas chromatograph. The oven program was modified to allow resolution of ROF1 components from those of the peppermint flavoring. The gas chromatograph was calibrated using a three point standard curve to quantify the following components: menthol (flavor); geraniol (oil geraniol); cedrene, thujopsene (RC1); pinene, cineol, camphor, bornyl acetate (ROF1). The initial temperature was decreased from 140° C. to 100° C. The temperature gradient was changed from 10° C./minute to 4° C./minute. The split ratio was 50:1, and injection volume was 1 μL as per the method. A cleanup gradient was run every fifth sample as described previously.
A recovery study was performed in triplicate using blank Wrigley's Peppermint Gum (chewed and unchewed) spiked with stand and solution. Recovery was calculated relative to a direct standard consisting of spike solution without sample matrix.

[6] = test system: Campylobacter rectus (CR); assay: MIC of agents alone, in pairs and in three-agent combination (Example 2); assay type: cell-based; conditions: CR, agent used alone, read-out: MIC, individual agent alone
Excerpt: as §1, §2, §3
A sterile polystyrene 96-well plate was used to dilute the antimicrobial agents A, B and C. […]
as §6

[7] = for Rate of release from gum: in words
Experimental: as §7, §8, §9, §10, §11

[8] = test system: Actinomyces viscosus (AV); assay: MIC of agents alone, in pairs and in three-agent combination (Example 2); assay type: cell-based, Actinomyces viscosus ATCC 19246; conditions: AV, agent used alone
Excerpt: as §1, §2, §3, §4, §5, §6

## CC(C)=CCC/C(C)=C/CO [GRA1, trans-3,7-dimethyl-2,6-octadien-1-ol]
Porphyromonas gingivalis
  MIC: 7.8 µg/mL
clinical
  concentration at 1 min: 6000 ng/mL
  concentration at 2.5 min: 6000 ng/mL
  concentration at 5 min: 7000 ng/mL
  concentration at 10 min: 5000 ng/mL
[1]
  MIC, individual agent alone: 125 µg/mL
[1]; Streptococcus mutans, read-out: MIC, individual agent alone
  MIC: 125 µg/mL
[2]
  MIC, individual agent alone: 62.5 µg/mL and 125 µg/mL
[2]; Fusobacterium nucleatum, read-out: MIC, individual agent alone
  MIC: 62.5 µg/mL
[3]
  MIC, individual agent alone: 125 µg/mL and 62.5 µg/mL and 250 µg/mL
[4]
  MIC, individual agent alone: 62.5 µg/mL
[4]; Porphyromonas gingivalis, read-out: MIC, individual agent alone
  MIC: 62.5 µg/mL
[5]
  Release from Chewed Gum Bolus after 25 min: 34%
[6]
  MIC: 250 µg/mL
[7]; concentration in saliva at any time above MIC relative to Porphyromonas gingivalis
  Above MIC in Saliva (Y/N): No
[7]; human, in vivo
  Time maintaining a presence in the oral cavity: about 25 minutes
[7]; listed as GRA
  Rate of release from gum: released more slowly and over a longer period of time
[7]; listed as geraniol
  Rate of release from gum: released from a gum base less quickly and over a longer period of time
[8]
  MIC, individual agent alone: 62.5 µg/mL and 125 µg/mL
[8]; Actinomyces viscosus, read-out: MIC, individual agent alone
  MIC: 125 µg/mL
